{"source": "patent US20200360331A1", "about": "“COMPOSITIONS COMPRISING 15-HEPE AND/OR 15-HETrE AND METHODS OF TREATING OR PREVENTING CARDIOMETABOLIC DISEASE, METABOLIC SYNDROME, AND/OR RELATED DISEASES” (Afimmune Limited, priority 2019, published 2020)", "key": {"[1]": {"tested_on": "UUO mice", "assay": "UUO study: kidney hydroxyproline content", "assay_type": "in vivo, C57BL/6 mice", "procedure": "UUO Surgery: On day 0 of the study, UUO surgery was performed on mice under pentobarbital sodium anesthesia. The mouse's hair was first shaved and then abdomen cut open to exteriorize the mouse's left ureter. The ureter was ligated 4-0 nylon sutures at two points. The mouse's peritoneum and skin were then closed with sutures, and the mouse transferred to a clean cage until recovered from the anesthesia. Sham operated mice had their left ureter exposed but not ligated.\nMeasurement of Kidney Biochemistry: To quantify kidney hydroxyproline content, frozen left kidney samples were processed by an alkaline-acid hydrolysis method as follows: kidney samples were dissolved in 2 normal (N) sodium hydroxide (NaOH) at 65° C. and autoclaved at 121° C. for 20 minutes. The lysed samples (400 μL) were acid-hydrolyzed with 400 μL of 6N hydrochloride acid (HCl) at 121° C. for 20 minutes, and neutralized with 400 μL of 4N NaOH containing 10 mg/mL of activated carbon. An AC buffer (e.g., 2.2M acetic acid/0.48M citric acid, 400 μL) was added to the samples, followed by centrifugation to collect the supernatant. A standard curve of hydroxyproline was constructed with serial dilutions of trans-4-hydroxy-L-proline (Sigma-Aldrich, USA) starting at 16 μg/mL. The prepared samples and standards (e.g., each 400 μL) were mixed with 400 μL chloramine T solution (Wako Pure Chemical Industries, Japan) and incubated for 25 minutes at room temperature. The samples were then mixed with Ehrlich's solution (e.g., 400 μL) and heated at 65° C. for 20 minutes to develop the color. After samples were cooled on ice and centrifuged to remove precipitates, the optical density of each supernatant was measured at 560 nanometers (nm). The concentrations of hydroxyproline were calculated from the hydroxyproline standard curve. Protein concentrations of kidney samples were determined using a bicinchoninic (BCA) protein assay kit (Thermo Fisher Scientific, USA) and used to normalize the calculated hydroxyproline values. Kidney hydroxyproline contents were expressed as microgram (μg) per mg protein."}, "[2]": {"target": "T1, type II TGF-β receptor (Homo sapiens, UniProt P37173)", "T1 construct": "endogenous in cells; host or cells: HepG2", "T1 sequence (P37173 23-567)": "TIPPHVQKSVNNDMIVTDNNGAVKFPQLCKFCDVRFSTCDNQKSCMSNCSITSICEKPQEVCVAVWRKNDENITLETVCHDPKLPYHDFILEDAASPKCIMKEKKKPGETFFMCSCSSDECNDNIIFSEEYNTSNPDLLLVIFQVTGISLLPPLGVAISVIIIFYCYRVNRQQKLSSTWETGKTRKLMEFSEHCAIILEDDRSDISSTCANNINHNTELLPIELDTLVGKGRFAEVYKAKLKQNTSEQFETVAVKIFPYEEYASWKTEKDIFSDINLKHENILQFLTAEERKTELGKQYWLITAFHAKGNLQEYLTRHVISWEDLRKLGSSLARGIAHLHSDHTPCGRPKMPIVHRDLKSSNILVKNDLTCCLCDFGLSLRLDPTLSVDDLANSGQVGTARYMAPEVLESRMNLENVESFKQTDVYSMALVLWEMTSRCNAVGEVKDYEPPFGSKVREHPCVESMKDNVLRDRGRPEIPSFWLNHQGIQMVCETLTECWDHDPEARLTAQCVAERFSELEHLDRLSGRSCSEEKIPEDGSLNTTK", "assay": "Degradation of type II TGF-β receptor in HepG2 cells", "assay_type": "cell-based", "conditions": "increasing doses for 1 hour, then 200 pM TGF-β for 48 hours", "procedure": "The effects of 15-HEPE on TGF-β-induced signaling and cellular responses were determined. To test the effect of 15-HEPE on TGF-β-induced signaling, the activities of 15-HEPE to regulate TGF-β-stimulated Smad2 phosphorylation and nuclear translocation, both of which are key signaling events leading to TGF-β-induced cellular responses, were tested. One important biological activity of TGF-β is transcriptional activation of genes responsible for epithelial-mesenchymal transition (EMT), which is a crucial event in wound healing, tissue fibrosis, and cancer progression. The effect of 15-HEPE on TGFβ-induced epithelial mesenchymal transition related proteins (such as fibronectin, PAI-1, and N-cadherin etc.) expression in HepG2 and […] cells were assessed. HepG2 cells (human hepatoma cell line) were treated in increasing doses of 15-HEPE stage II in DMEM containing 0.1% of FBS for 1 hour and continually stimulated with or without 200 picomolar (pM) of TGF-β for 48 hours.\nHepG2 cells (human hepatoma cell line) were treated in increasing doses of 15-HEPE stage II in DMEM containing 0.1% of FBS for 1 hour and continually stimulated with or without 200 picomolar (pM) of TGF-β for 48 hours. The two panels shown in FIG. 18A are two separate experiments run under the same experimental conditions."}, "[3]": {"tested_on": "NAFLD patients", "assay": "Phase IIa NAFLD study: safety (adverse events)", "assay_type": "in vivo, human", "description": "The study was planned to include 96 evaluable patients with 32 patients randomized per treatment group.\nThe intensity of an AE is an estimate of the relative severity of the event made by the Investigator based on his or her clinical experience. The following definitions were used to rate the severity of an AE: • Mild: The adverse event was transient and easily tolerated. • Moderate: The adverse event caused the patient discomfort and interrupted the patient's usual activities. • Severe: The adverse event caused considerable interference with the patient's usual activities and may have been incapacitating or life-threatening.\nCausality of the AE to experimental treatment was also established by taking into account the patient's history, most recent physical examination findings, and concomitant medications. The following definitions were used to determine causality of an AE: • Not related: temporal relationship of the onset of the AE, relative to the experimental treatment was not reasonable or another cause could explain the occurrence of the AE. • Related: temporal relationship of the onset of the AE, relative to the experimental treatment was reasonable, followed a known response pattern to the treatment, and an alternative cause was unlikely."}}}
{"smiles": "CC/C=C\\CC(O)/C=C/C=C\\C/C=C\\C/C=C\\CCCC(=O)O", "note": "(centres unmarked) [DS102, 15-hydroxy-eicosa-5Z,8Z,11Z,13E,17Z-pentaenoic acid]", "values": [{"measurement": "kidney hydroxyproline contents compared with the Vehicle group", "setting": "[1]; 50 mg/kg", "result": "significant decrease"}, {"measurement": "Kidney hydroxyproline", "setting": "[1]; 50 mg/kg PO QD Day 0-13, Day 14", "result": "8.47 ± 2.08", "unit": "μg/mg total protein"}, {"measurement": "kidney hydroxyproline contents compared with the Vehicle group", "setting": "[1]; 500 mg/kg", "result": "significant decreases"}, {"measurement": "Kidney hydroxyproline", "setting": "[1]; 500 mg/kg PO QD Day 0-13, Day 14", "result": "8.59 ± 1.99", "unit": "μg/mg total protein"}, {"measurement": "degradation of type II TGF-β receptor", "setting": "[2]", "result": "induced degradation of type II TGF-β receptor"}, {"measurement": "Death, patients n", "setting": "[3]; 1 g DS102 (n = 32)", "result": 0}, {"measurement": "Patients with ≥1 AE related to study drug, %", "setting": "[3]; 1 g DS102 (n = 32)", "result": "(6.3) %"}, {"measurement": "Patients with ≥1 AE, %", "setting": "[3]; 1 g DS102 (n = 32)", "result": "(59.4) %"}, {"measurement": "Death, patients n", "setting": "[3]; 2 g DS102 (n = 30)", "result": 0}, {"measurement": "Patients with ≥1 AE related to study drug, %", "setting": "[3]; 2 g DS102 (n = 30)", "result": "(10.0) %"}, {"measurement": "Patients with ≥1 AE, %", "setting": "[3]; 2 g DS102 (n = 30)", "result": "(50.0) %"}, {"measurement": "Patients with ≥1 SAE, %", "setting": "[3]; 2 g DS102 (n = 30)", "result": "(3.3) %"}, {"measurement": "drug related serious adverse events (SAEs)", "setting": "[3]; NAFLD patients, 16 weeks", "result": "no drug related serious adverse events"}, {"measurement": "safety and tolerability compared to placebo", "setting": "[3]; NAFLD patients, 16 weeks", "result": "safe and well tolerated"}]}
